This is an account of results in US20130005696A1, “BUFADIENOLIDE DERIVATIVES, PREPARING PROCESS THEREOF, COMPOSITION COMPRISING THE SAME AND THE USE THEREOF” (priority 2011, published 2013).

One assay has as its system human non-small cell lung carcinoma A549 xenograft. The assay can be described thus: In vivo therapeutic effect against A549 xenograft in nude mice. Particulars: A549 xenograft in nude mice; bufalin at 1.6 mg/kg. As for the experimental part:
This experiment is to evaluate the in vivo therapeutic effects of compounds bufalin, II1D-06.HCl, II1E-01.HCl and II1B-02.HCl against human-derived lung carcinoma A549 cell xenograft in nude mice.
Solvent control: 4% DMSO & 2% Tween-80 & 5% PEG-400 solution in normal saline
Compounds to be tested: bufalin, II1B-02.HCl, II1E-01.HCl, II1D-06.HCl
Formulating method: the compound was dissolved with DMSO into a stock solution, which was then diluted into an injection with a final DMSO concentration of 4%.
Positive control: Rapamycin Formulating method: it was formulated into an injection with a final DMSO concentration of 4%.
After the tumor size reaches about 200 mm^3, the mice bearing the tumor were grouped randomly into 8 groups according to the tumor size, including the groups of solvent control, positive control rapamycin 5 mg/kg, II1E-01.HCl 2 mg/kg, II1E-01.HCl 4 mg/kg, II1E-01.HCl 6 mg/kg, II1B-02.HCl 4 mg/kg, II1D-06.HCl 4 mg/kg, bufalin 1.6 mg/kg, wherein the dosage selection is based on that the maximum tolerable dosage is 1.6 mg/kg for bufalin and 6 mg/kg for II1E-01.HCl. Rapamycin was administered intravenously once a week (QW) and the other groups were administered intraperitoneally once every other day (QOD). The tumor was weighted after 21 days to calculate the inhibition rate. The equation for calculating inhibition rate (IR) is IR=(WC−WT)/WC×100%, wherein, WC represents the tumor weight of the control group, and WT represents the tumor weight of the treating group.
For the molecule `CCN(CC)CCNC(=O)O[C@H]1CC[C@@]2(C)[C@H](CC[C@@H]3[C@@H]2CC[C@]2(C)[C@@H](c4ccc(=O)oc4)CC[C@]32O)C1.Cl` [II1B-02•HCl], the “inhibition of growth of human lung carcinoma A549 xenograft, in words” value is “significantly inhibit the growth”.

Still in this assay, the particulars now being: A549 xenograft, 4 mg/kg ip QOD, after 21 days.
For `CCN(CC)CCNC(=O)O[C@H]1CC[C@@]2(C)[C@H](CC[C@@H]3[C@@H]2CC[C@]2(C)[C@@H](c4ccc(=O)oc4)CC[C@]32O)C1.Cl` [II1B-02•HCl], the “Inhibition Rate (%)” value is given as 58.34% and the “Tumor Weight(g) Mean ± SE” value is on record as 0.7013 ± 0.0707 g.
Taken in the same sequence, the figures for `C[C@]12CC[C@H](OC(=O)N3CCCNCC3)C[C@H]1CC[C@@H]1[C@@H]2CC[C@]2(C)[C@@H](c3ccc(=O)oc3)CC[C@]12O.Cl` [II1D-06•HCl] were 37.15% and 1.0580 ± 0.0866 g.

For another assay, the system named is HeLa human cervical carcinoma cell line. The assay can be described thus: In vitro antitumor activity assay (SRB), HeLa. In kind it is cell-based. Particulars: Table 1, read-out: IC50, inhibitory activity on cell proliferation of HeLa cell line. An excerpt:
HeLa human cervical carcinoma cell line, A-549 human non-small cell lung carcinoma cell line, NCI-H2228 human lung carcinoma cell line, NCI-H460 human lung carcinoma cell line, MDA-MB-231 human breast carcinoma cell line, MCF-7 human breast carcinoma cell line, Bel-7402 human hepatic carcinoma cell line, Hep3B human hepatic carcinoma cell line, QGY-7703 human hepatic carcinoma cell line, MV-4-11 human leukemic cell line, DAUDI human leukemic cell line, Jurkat human leukemic cell line, A498 renal carcinoma cell line, LoVo human colon carcinoma cell line, HCT1116 human colon carcinoma cell line, A431 human skin carcinoma cell line, PANC-1 human pancreatic carcinoma cell line, U87-MG human brain carcinoma cell line, SH-SY5Y human brain carcinoma cell line, RPMI-8226 human bone carcinoma cell line, HT1080 human fibrosarcoma cell line, PC-3 human prostatic carcinoma cell line, AGS human gastric adenocarcinoma cell line, and BGC-823 human gastric adenocarcinoma cell line were purchased from the Cell Bank of the Chinese Academy of Sciences.
The positive control is bufalin (formulated according to the common method), its purity is 98% or more by HPLC-UV and its structure is identified by NMR. The compounds to be tested and the positive control were diluted with normal saline with a concentration gradient of 10^−4 M, 10^−5 M, 10^−6 M, 10^−7 M and 10^−8 M.
According to cell growth rate, tumor cells in the log phase of growth were seeded into 96-well culture plates at 100 μL per well, and allowed to attach for 24 hours, followed by addition of a test compound or positive control at 10 μL per well. For each concentration, the test was carried out in triplicate wells. Solvent control wells with addition of normal saline into cell culture and a blank well containing only cell culture medium but without cells for zeroing were also included. The tumor cells were incubated for 72 hours at 37° C. under 5% CO2, and then the culture medium (RPMI-1640) was removed. The cells were fixed with 10% cool TCA by incubating for 1 h at 4° C., washed with distilled water for 5 times, and dried naturally in the air. A solution of SRB (Sigma) (4 mg/mL) in 1% glacial acetic acid was added at 100 μL per well, and the cells were stained for 15 minutes at room temperature, and the supernatant was discarded. The plates were washed for 5 times with 1% acetic acid, and dried in air. Finally, Tris solution was added at 150 μL per well, and the absorbance (A) was measured at a wavelength of 515 nm using a microplate reader. The growth inhibition on tumor cell proliferation was calculated according to the following equation:
Growth Inhibition (%)=[(Absorbance of negative control−Absorbance of blank)−(Absorbance of sample−Absorbance of blank)]/(Absorbance of negative control−Absorbance of blank)×100%
Drug concentration: 10 μM, 1 μM, 0.1 μM, 10 nM, 1 nM, 0.1 nM.
IC50 was fitted by GraphPad Prism 4.
For the molecule `C[C@]12CC[C@H](NC(=O)N3CCNCC3)C[C@H]1CC[C@@H]1[C@@H]2CC[C@]2(C)[C@@H](c3ccc(=O)oc3)CC[C@]12O` [III1D-02], the IC50 was 5.68 nM.

Still in this assay, the particulars now being: read-out: IC50, inhibitory activity on cell proliferation of HeLa cell line.
With `CCNC1CCN(C(=O)O[C@H]2CC[C@@]3(C)[C@H](CC[C@@H]4[C@@H]3CC[C@]3(C)[C@@H](c5ccc(=O)oc5)CC[C@]43O)C2)CC1` [II1D-23], the IC50 stood at 1.12 nM.
Same read-out and setting: to `C[C@]12CC[C@H](OC(=O)N3CCC(NCCO)CC3)C[C@H]1CC[C@@H]1[C@@H]2CC[C@]2(C)[C@@H](c3ccc(=O)oc3)CC[C@]12O` [II1D-24] belongs 7.3 nM.
On the same count and under the same terms, to `C[C@]12CC[C@H](OC(=O)N3CCN(S(C)(=O)=O)CC3)C[C@H]1CC[C@@H]1[C@@H]2CC[C@]2(C)[C@@H](c3ccc(=O)oc3)CC[C@]12O` [II1D-10] belongs 16.3 nM; to `CN1CCN(C(=O)N[C@H]2CC[C@@]3(C)[C@H](CC[C@@H]4[C@@H]3CC[C@]3(C)[C@@H](c5ccc(=O)oc5)CC[C@]43O)C2)CC1` [III1D-03], 41.6 nM; to `C[C@]12CC[C@H](OC(=O)NCCCN)C[C@H]1CC[C@@H]1[C@@H]2CC[C@]2(C)[C@@H](c3ccc(=O)oc3)CC[C@]12O` [II1B-10], 1.82 nM.
Still for that read-out and setting: to `C[C@]12CC[C@H](OC(=O)NCC3CCNCC3)C[C@H]1CC[C@@H]1[C@@H]2CC[C@]2(C)[C@@H](c3ccc(=O)oc3)CC[C@]12O` [II1E-02] belongs 4.31 nM.
On to `CN(C)C1CCN(C(=O)O[C@H]2CC[C@@]3(C)[C@H](CC[C@@H]4[C@@H]3CC[C@]3(C)[C@@H](c5ccc(=O)oc5)CC[C@]43O)C2)CC1` [II1D-25], for which the IC50 was found to be 5.44 nM.
On the same count and under the same terms, then `C[C@]12CC[C@H](NC(=O)NCC3CCCCN3)C[C@H]1CC[C@@H]1[C@@H]2CC[C@]2(C)[C@@H](c3ccc(=O)oc3)CC[C@]12O` (some centres unmarked) [III1E-02], with 8.68 nM; and `CC(=O)N1CCN(C(=O)O[C@H]2CC[C@@]3(C)[C@H](CC[C@@H]4[C@@H]3CC[C@]3(C)[C@@H](c5ccc(=O)oc5)CC[C@]43O)C2)CC1` [II1D-14], with 23.1 nM; and `C[C@]12CC[C@H](OC(=O)N3CCNC3)C[C@H]1CC[C@@H]1[C@@H]2CC[C@]2(C)[C@@H](c3ccc(=O)oc3)CC[C@]12O` [II1D-19], with 5.8 nM.
Same read-out and setting: then `CCNCCN(CC)C(=O)O[C@H]1CC[C@@]2(C)[C@H](CC[C@@H]3[C@@H]2CC[C@]2(C)[C@@H](c4ccc(=O)oc4)CC[C@]32O)C1` [II1B-06], with 1.11 nM.
Still for that read-out and setting: then `C[C@]12CC[C@H](OC(=O)N3CCC(O)CC3)C[C@H]1CC[C@@H]1[C@@H]2CC[C@]2(C)[C@@H](c3ccc(=O)oc3)CC[C@]12O` [II1D-04], with 38 nM; and `CCOC(=O)CCNC(=O)N1CCN(C(=O)O[C@H]2CC[C@@]3(C)[C@H](CC[C@@H]4[C@@H]3CC[C@]3(C)[C@@H](c5ccc(=O)oc5)CC[C@]43O)C2)CC1` [II1D-07], with 2.6 nM.
On to `C[C@]12CC[C@H](OC(=O)N3CCN(C(=O)c4ccccc4)CC3)C[C@H]1CC[C@@H]1[C@@H]2CC[C@]2(C)[C@@H](c3ccc(=O)oc3)CC[C@]12O` [II1D-16], for which the IC50 came out at 44.6 nM.
Same read-out and setting: then `C[C@]12CC[C@H](NC(=O)NC3CCNCC3)C[C@H]1CC[C@@H]1[C@@H]2CC[C@]2(C)[C@@H](c3ccc(=O)oc3)CC[C@]12O` [III1E-01], with 7.2 nM.
On the same count and under the same terms, to `COC(=O)c1ccccc1S(=O)(=O)N1CCN(C(=O)O[C@H]2CC[C@@]3(C)[C@H](CC[C@@H]4[C@@H]3CC[C@]3(C)[C@@H](c5ccc(=O)oc5)CC[C@]43O)C2)CC1` [II1D-12] belongs 41.8 nM; to `C[C@]12CC[C@H](NC(=O)N3CCCNCC3)C[C@H]1CC[C@@H]1[C@@H]2CC[C@]2(C)[C@@H](c3ccc(=O)oc3)CC[C@]12O` [III1D-04], 3.98 nM.
As to `C[C@]12CC[C@H](OC(=O)NCCN)C[C@H]1CC[C@@H]1[C@@H]2CC[C@]2(C)[C@@H](c3ccc(=O)oc3)CC[C@]12O` [II1B-09], the IC50 was 5.72 nM.
Still for that read-out and setting: to `CN(C)CCNC(=O)O[C@H]1CC[C@@]2(C)[C@H](CC[C@@H]3[C@@H]2CC[C@]2(C)[C@@H](c4ccc(=O)oc4)CC[C@]32O)C1` [II1B-01] belongs 1.79 nM; to `CNC1CCN(C(=O)O[C@H]2CC[C@@]3(C)[C@H](CC[C@@H]4[C@@H]3CC[C@]3(C)[C@@H](c5ccc(=O)oc5)CC[C@]43O)C2)CC1` [II1D-22], 7.34 nM.
Turning to `CNCCCN(C)C(=O)O[C@H]1CC[C@@]2(C)[C@H](CC[C@@H]3[C@@H]2CC[C@]2(C)[C@@H](c4ccc(=O)oc4)CC[C@]32O)C1` [II1B-07], the IC50 amounted to 1.15 nM.
On the same count and under the same terms, then `CN1CCN(C(=O)O[C@H]2CC[C@@]3(C)[C@H](CC[C@@H]4[C@@H]3CC[C@]3(C)[C@@H](c5ccc(=O)oc5)CC[C@]43O)C2)CC1` [II1D-03], with 3.49 nM; and `CCN(CCN(C)C)C(=O)O[C@H]1CC[C@@]2(C)[C@H](CC[C@@H]3[C@@H]2CC[C@]2(C)[C@@H](c4ccc(=O)oc4)CC[C@]32O)C1` [II1B-04], with 2.17 nM.
